This is an account of results in patent publication US6514997B2, “Antipicornaviral compounds and compositions, their pharmaceutical uses, and materials for their synthesis” (Agouron Pharmaceuticals, Inc., priority 1999, dated 2003).

In series [1] the target is T1, Recombinant rhinovirus 3C protease, serotype 14 (Human rhinovirus 14, UniProt P03303).
T1 construct: Recombinant rhinovirus 3C proteases; made in house
As to the kind of experiment: Inhibition of rhinovirus 3C protease (FRET assay, kobs/[I]), serotype 14. It is filed as biochemical. The conditions noted are these: pH 7.6; HRV-14; read-out: kobs/[I] (3C protease inhibition activity). As for the experimental part: Inhibition of Rhinovirus 3C Protease:
Stock solutions (50 mM, in DMSO) of various compounds were prepared; dilutions were in the same solvent. Recombinant rhinovirus 3C proteases (see Birch et al., “Purification of recombinant human rhinovirus 14 3C protease expressed in Escherichia coli,” Protein Expr. Pur. (1995), vol. 6(5), 609-618) from serotypes 14, 16, and 2 were prepared by the following standard chromatographic procedures: (1) ion exchange using Q Sepharose Fast Flow from Pharmacia; (2) affinity chromatography using Affi-Gel Blue from Biorad; and (3) sizing using Sephadex G-100 from Pharmacia. Each assay sample contained 2% DMSO, 50 mM tris pH 7.6, 1 mM EDTA, a test compound at the indicated concentration, approximately 1 μM substrate, and 50-100 nM protease. The kobs/I values were obtained from reactions initiated by addition of enzyme rather than substrate. RVP activity was measured in the fluorescence resonance energy transfer assay. The substrate was (N-terminal) DABCYL-([…]-EDANS. In the uncleaved peptide, the EDANS fluorescence was quenched by the proximal DABCYL moiety. When the peptide was cleaved, the quenching was relieved, and activity was measured as an increase in fluorescence signal. The tabulated data in the column designated kobs/[I] were measured from progress curves in enzyme start experiments.

The test system of the next series is HRV-14. As to the kind of experiment: Antirhinoviral H1-HeLa cell culture assay (XTT cell protection, EC50), HRV-14. It is filed as cell-based, human rhinovirus (HRV) serotype-14 in H1-HeLa cells. The conditions noted are these: Rhinovirus B, HRV14, H1-HeLa. As for the experimental part: Antirhinoviral H1-HeLa Cell Culture Assay:
(§1) In this cell protection assay, the ability of compounds to protect cells against HRV infection was measured by the XTT dye reduction method, which is described in Weislow et al., J. Natl. Cancer Inst. […] H1-HeLa cells were infected with HRV-14 at a multiplicity of infection (m.o.i.) of 0.13 (virus particles/cell) or mock-infected with medium only. Infected or mock-infected cells were resuspended at 8×10^5 cells per mL, and incubated with appropriate concentrations of the compounds to be tested. Two days later, XTT/PMS was added to test plates and the amount of formazan produced was quantified spectrophotometrically at 450/650 nm. […] The therapeutic index (TI) was calculated by dividing the CC50 value by the EC50 value.
(§2) All strains of human rhinovirus (HRV) for use in this assay were purchased from American Type Culture Collection (ATCC), except for HRV serotype-14 (produced from the infectious cDNA clone constructed by Dr. Robert Rueckert, Institute for Molecular Virology, University of Wisconsin, Madison, Wis.). HRV stocks were propagated and viral assays were performed in H1-HeLa cells (ATCC). Cells were grown in minimal essential medium with 10% fetal bovine serum, available from Life Technologies (Gaithersburg, Md.).
Background: Tetrazolium assays rely on reduction of a dye to a coloured formazan, in cell work by metabolically active cells.

The nature of series [2]: Cytotoxicity (CC50) in mock-infected H1-HeLa cells, XTT dye reduction. In kind it is cell-based, human. The conditions noted are these: human, H1-HeLa cells, mock-infected; line of HRV-14. Here is the method:
as §1, §2
Coxsackievirus types A-21 (CAV-21) and B3 (CVB3) were purchased from American Type Culture Collection (ATCC, Rockville, Md.). Virus stocks were propagated and antiviral assays were performed in H1-HeLa cells (ATCC). Cells were grown in minimal essential medium with 10% fetal bovine serum (Life Technologies, Gaithersburg, Md.). The ability of the compounds of this invention to protect cells against either CAV-21 or CVB3 infection was measured by the XTT dye reduction method. This method is described in Weislow et al., J. Natl. Cancer Inst. […] H1-HeLa cells were infected with CAV-21 or CVB3 at a multiplicity of infection (m.o.i.) of 0.025 or 0.075, respectively, or mock-infected with medium only. H1-HeLa cells were plated at 4×10^4 cells per well in a 96-well plate and incubated with appropriate concentrations of the test compound. One day (CVB3) or two days (CAV-21) later, XTT/PMS was added to test plates and the amount of formazan produced was quantified spectrophotometrically at 450/650 nm. […] The therapeutic index (TI) was calculated by dividing the CC50 by the EC50.

pEC50: −log10 of the molar value. Read-outs that look alike come from different tables or passages of the source. Some results are limits rather than exact numbers.

T1 sequence (P03303 1538-1719): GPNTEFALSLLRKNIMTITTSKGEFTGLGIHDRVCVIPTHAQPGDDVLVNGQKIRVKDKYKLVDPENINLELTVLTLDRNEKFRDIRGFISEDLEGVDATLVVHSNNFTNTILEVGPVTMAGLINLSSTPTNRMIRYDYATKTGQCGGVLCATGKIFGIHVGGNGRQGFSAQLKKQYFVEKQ

Broadly, the pEC50 is −log10 of the EC50, conventionally taken in molar units. Broadly, the CC50 is the concentration giving 50% cytotoxicity. The low end stands for greater toxicity to the cells, the high end for lower toxicity to the cells. As for `CCOC(=O)/C=C/[C@H](CCC(N)=O)NC(=O)[C@H](Cc1ccccc1)n1cccc(NC(=O)C(C)(C)C)c1=O` [Compound 9, trans-(2′S,4S)-6-Carbamoyl-4-{2′-[3″-(2′″,2′″-dimethylpropionylamino)-2″-oxo-2″H-pyridin-1″-yl]-3′-phenylpropionylamino}hex-2-enoic Acid Ethyl Ester], in series [1], the kinact/KI was determined as 5040 M⁻¹ s⁻¹. Further, in the series with HRV-14 (HRV-14, read-out: EC50), the pEC50 is 6.29. This compound also showed a CC50 at 2 days in series [2] of over 10 µM.

Regarding `CCOC(=O)/C=C/[C@H](C[C@@H]1CCNC1=O)NC(=O)Cn1cccc(NC(=O)c2cc(C)on2)c1=O` [Compound 22, trans-(4S,3″″S)-4-(2′-{3″-[(5′″-Methylisoxazole-3′″-carbonyl)amino]-2″-oxo-2″H-pyridin-1″-yl}acetylamino)-5-(2″″-oxopyrrilidin-3″″-yl)pent-2-enoic Acid Ethyl Ester], the kinact/KI in series [1] was 18500 M⁻¹ s⁻¹. The compound further showed a pEC50 in the series with HRV-14 of 6.00. Further, in series [2], the CC50 at 2 days was over 10 µM.

In the case of `CC[C@@H](C(=O)N[C@H](/C=C/C(=O)O)C[C@@H]1CCNC1=O)n1cccc(NC(=O)c2cc(C)on2)c1=O` [Compound 35, trans-(2S,3″″S,4S)-4-(2′-{3″-[(5′″-Methylisoxazole-3′″-carbonyl)amino]-2″-oxo-2″H-pyridin-1″-yl}butyrylamino)-5-(2″″-oxopyrrolidin-3″″-yl)pent-2-enoic Acid], the kinact/KI in series [1] was 220 M⁻¹ s⁻¹. The pEC50 in the series on HRV-14 was under 5.00. In series [2], this compound yielded a CC50 at 2 days of over 10 µM.

`CCOC(=O)/C=C/[C@H](CCC(N)=O)NC(=O)[C@H](CC1CCCCC1)n1cccc(NC(=O)OCc2ccccc2)c1=O` [Compound 15, trans-(2′S,4S)-4-[2′-(3″-Benzyloxycarbonylamino-2″-oxo-2″H-pyridin-1″-yl)-3′-cyclohexylpropionylamino]-6-carbamoyl-hex-2-enoic Acid Ethyl Ester]: the kinact/KI in series [1] turned out to be 6500 M⁻¹ s⁻¹. Also, in the series with HRV-14 (HRV-14, read-out: EC50), the pEC50 was 6.75. The same compound yielded a CC50 at 2 days in series [2] of over 10 µM.

Take `CCOC(=O)/C=C/[C@H](CCC(N)=O)NC(=O)[C@H](Cc1ccc(F)c(F)c1)n1cccc(NC(=O)OCc2ccccc2)c1=O` [Compound 11, trans-(2′S,4S)-4-[2′-(3″-Benzyloxycarbonylamino-2″-oxo-2″H-pyridin-1″-yl)-3′-(3′″,4′″-difluorophenyl)propionylamino]-6-carbamoylhex-2-enoic Acid Ethyl Ester]: in series [1], the kinact/KI was 193000 M⁻¹ s⁻¹. The pEC50 in the series with HRV-14 (HRV-14, read-out: EC50) is over 8.49. Further, the CC50 at 2 days in series [2] was over 10 µM.

With `CCOC(=O)/C=C/[C@H](CCC(N)=O)NC(=O)[C@H](Cc1ccccc1)n1ccc(C)c(NC(=O)c2cc(C)on2)c1=O` [Compound 18, trans-(2′S,4S)-6-Carbamoyl-4-(2′-{4″-methyl-3″-[(5′″-methylisoxazole-3′″-carbonyl)amino]-2″-oxo-2″H-pyridin-1″-yl}-3′-phenylpropionylamino)hex-2-enoic Acid Ethyl Ester], the kinact/KI in series [1] is 116000 M⁻¹ s⁻¹. Besides, in the series on HRV-14 (HRV-14, read-out: EC50), the pEC50 is 6.90. In addition, in series [2], the CC50 at 2 days is over 10 µM.

With `CCOC(=O)/C=C/[C@H](C[C@H]1CCNC1=O)NC(=O)[C@H](Cc1ccccc1)n1cccc(NC(=O)OCc2ccccc2)c1=O` [Compound 21, trans-(2′S,3′″R,4S)-4-[2′-(3″-Benzyloxycarbonylamino-2″-oxo-2″H-pyridin-1″-yl)-3′-phenylpropionylamino]-5-(2′″-oxopyrrolidin-3′″-yl)pent-2-enoic Acid Ethyl Ester], the kinact/KI in series [1] amounted to 6340 M⁻¹ s⁻¹. The same compound had a pEC50 in the series with HRV-14 of 6.33. The CC50 at 2 days in series [2] is over 10 µM.

For `CCOC(=O)/C=C/[C@H](CCC(N)=O)NC(=O)[C@@H]1CCc2ccc(NC(=O)OCc3ccccc3)c(=O)n21` [Compound 36, trans-(3′S,4S)-4-[(6′-Benzyloxycarbonylamino-5′-oxo-1′,2′,3′,5′-tetrahydroindolizine-3′-carbonyl)amino]-6-carbamoylhex-2-enoic Acid Ethyl Ester], the kinact/KI in series [1] was found to be 4540 M⁻¹ s⁻¹. Also, the pEC50 with HRV-14 (HRV-14, read-out: EC50) was 5.05. Further, the CC50 at 2 days in series [2] was over 100 µM.
